Laboratory results from ChEMBL document CHEMBL4219222, “A new class of pyrazolo[5,1-c][1,2,4]triazines as γ-aminobutyric type A (GABAA) receptor subtype ligand: synthesis and pharmacological evaluation” (Bioorg Med Chem, 2018).

Columns and labels:
[1] = Displacement of [3H]Ro15-1788 from GABAA receptor in bovine cerebral cortex membranes after 90 mins by liquid scintillation counting method; format: cell membranes, Bos taurus, Membrane
[2] = Displacement of [3H]Ro15-1788 from recombinant rat GABAAalpha2/beta2/gamma2 receptor after 90 mins by liquid scintillation counting method
[3] = Displacement of [3H]Ro15-1788 from recombinant rat GABAAalpha3/beta2/gamma2 receptor after 90 mins by liquid scintillation counting method
[4] = target: GABA-A receptor; alpha-1/beta-2/gamma-2 (Rattus norvegicus, UniProt P18508+P62813+P63138); assay: Displacement of [3H]Ro15-1788 from recombinant rat GABAAalpha1/beta2/gamma2 receptor after 90 mins by liquid scintillation counting method; format: protein-complex assay
[5] = target: GABA A receptor alpha-5/beta-3/gamma-2 (Rattus norvegicus, UniProt P18508+P19969+P63079); assay: Displacement of [3H]Ro15-1788 from recombinant rat GABAAalpha5/beta3/gamma2 receptor after 90 mins by liquid scintillation counting method; format: protein-complex assay
[6] = species: Bos taurus; assay: Displacement of [3H]Ro15-1788 from GABAA receptor in bovine cerebral cortex membranes at 10 uM after 90 mins by liquid scintillation counting method relative to control; format: cell membranes; conditions: Membrane
[7] = target: GABA A receptor alpha-5/beta-3/gamma-2 (Rattus norvegicus) (UniProt P18508+P19969+P63079); assay: Displacement of [3H]Ro15-1788 from recombinant rat GABAAalpha5/beta3/gamma2 receptor at 10 uM after 90 mins by liquid scintillation counting method relative to control; format: protein-complex assay
[8] = species: Rattus norvegicus; assay: Selectivity ratio of Ki for recombinant rat GABAAalpha5/beta3/gamma2 receptor to Ki for recombinant rat GABAAalpha2/beta2/gamma2 receptor
[9] = species: Rattus norvegicus; assay: Selectivity ratio of Ki for recombinant rat GABAAalpha1/beta2/gamma2 receptor to Ki for recombinant rat GABAAalpha2/beta2/gamma2 receptor
[10] = species: Rattus norvegicus; assay: Displacement of [3H]Ro15-1788 from recombinant rat GABAAalpha3/beta2/gamma2 receptor at 10 uM after 90 mins by liquid scintillation counting method relative to control
[11] = species: Rattus norvegicus; assay: Displacement of [3H]Ro15-1788 from recombinant rat GABAAalpha2/beta2/gamma2 receptor at 10 uM after 90 mins by liquid scintillation counting method relative to control

Chain of GABA A receptor alpha-5/beta-3/gamma-2 (P18508 whole entry): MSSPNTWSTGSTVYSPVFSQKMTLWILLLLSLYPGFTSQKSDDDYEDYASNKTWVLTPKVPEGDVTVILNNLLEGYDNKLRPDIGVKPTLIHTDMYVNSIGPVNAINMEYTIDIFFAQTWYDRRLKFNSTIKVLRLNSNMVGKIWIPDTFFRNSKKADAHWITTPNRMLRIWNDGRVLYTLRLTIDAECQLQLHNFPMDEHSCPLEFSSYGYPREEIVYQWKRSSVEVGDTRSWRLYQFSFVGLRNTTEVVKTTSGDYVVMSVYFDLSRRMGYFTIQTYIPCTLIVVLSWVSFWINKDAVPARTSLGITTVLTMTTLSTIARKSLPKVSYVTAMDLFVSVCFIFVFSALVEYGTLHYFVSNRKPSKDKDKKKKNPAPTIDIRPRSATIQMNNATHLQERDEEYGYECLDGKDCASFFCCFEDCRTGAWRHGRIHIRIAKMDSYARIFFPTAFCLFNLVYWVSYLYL
Chain of GABA A receptor alpha-5/beta-3/gamma-2 (P19969 whole entry): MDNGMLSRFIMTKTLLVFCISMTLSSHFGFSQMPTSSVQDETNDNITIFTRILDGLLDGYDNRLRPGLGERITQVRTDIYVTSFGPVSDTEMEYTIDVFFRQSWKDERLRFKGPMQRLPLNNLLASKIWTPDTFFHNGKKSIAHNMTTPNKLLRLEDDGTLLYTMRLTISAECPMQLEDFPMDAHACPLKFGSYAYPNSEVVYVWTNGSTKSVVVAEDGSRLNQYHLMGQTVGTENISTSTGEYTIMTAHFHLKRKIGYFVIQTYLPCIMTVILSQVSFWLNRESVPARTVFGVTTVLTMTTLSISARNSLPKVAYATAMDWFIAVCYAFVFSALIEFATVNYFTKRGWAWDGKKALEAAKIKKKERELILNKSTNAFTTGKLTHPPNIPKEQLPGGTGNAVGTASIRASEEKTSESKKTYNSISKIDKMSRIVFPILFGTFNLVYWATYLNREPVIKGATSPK
Chain of GABA A receptor alpha-5/beta-3/gamma-2 (P63079 whole entry): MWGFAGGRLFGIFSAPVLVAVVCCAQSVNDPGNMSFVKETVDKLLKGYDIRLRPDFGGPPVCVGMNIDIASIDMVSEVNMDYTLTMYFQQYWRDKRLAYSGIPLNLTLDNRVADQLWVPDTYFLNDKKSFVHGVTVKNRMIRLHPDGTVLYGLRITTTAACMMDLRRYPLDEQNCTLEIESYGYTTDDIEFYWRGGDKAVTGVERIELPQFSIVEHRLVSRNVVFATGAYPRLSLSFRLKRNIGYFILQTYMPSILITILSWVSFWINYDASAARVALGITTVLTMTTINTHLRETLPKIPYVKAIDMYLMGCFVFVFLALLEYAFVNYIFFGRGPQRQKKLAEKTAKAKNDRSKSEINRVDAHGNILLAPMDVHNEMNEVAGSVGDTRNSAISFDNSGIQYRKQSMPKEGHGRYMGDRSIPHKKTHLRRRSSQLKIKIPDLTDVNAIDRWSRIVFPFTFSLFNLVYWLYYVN
Chain of GABA-A receptor; alpha-1/beta-2/gamma-2 (P18508 whole entry): as the sequence (P18508 whole entry) above
Chain of GABA-A receptor; alpha-1/beta-2/gamma-2 (P62813 whole entry): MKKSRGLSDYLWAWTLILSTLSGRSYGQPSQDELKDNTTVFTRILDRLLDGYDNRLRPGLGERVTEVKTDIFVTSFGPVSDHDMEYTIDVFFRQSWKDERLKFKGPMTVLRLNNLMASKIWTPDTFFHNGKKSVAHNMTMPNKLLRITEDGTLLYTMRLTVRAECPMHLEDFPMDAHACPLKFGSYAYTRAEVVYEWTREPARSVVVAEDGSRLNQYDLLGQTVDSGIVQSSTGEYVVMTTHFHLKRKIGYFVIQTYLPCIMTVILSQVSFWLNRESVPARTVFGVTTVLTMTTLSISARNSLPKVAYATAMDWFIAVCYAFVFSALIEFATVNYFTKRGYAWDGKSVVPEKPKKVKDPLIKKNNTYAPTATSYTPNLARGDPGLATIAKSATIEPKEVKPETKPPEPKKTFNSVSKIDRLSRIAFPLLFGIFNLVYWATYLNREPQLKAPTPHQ
Chain of GABA-A receptor; alpha-1/beta-2/gamma-2 (P63138 whole entry): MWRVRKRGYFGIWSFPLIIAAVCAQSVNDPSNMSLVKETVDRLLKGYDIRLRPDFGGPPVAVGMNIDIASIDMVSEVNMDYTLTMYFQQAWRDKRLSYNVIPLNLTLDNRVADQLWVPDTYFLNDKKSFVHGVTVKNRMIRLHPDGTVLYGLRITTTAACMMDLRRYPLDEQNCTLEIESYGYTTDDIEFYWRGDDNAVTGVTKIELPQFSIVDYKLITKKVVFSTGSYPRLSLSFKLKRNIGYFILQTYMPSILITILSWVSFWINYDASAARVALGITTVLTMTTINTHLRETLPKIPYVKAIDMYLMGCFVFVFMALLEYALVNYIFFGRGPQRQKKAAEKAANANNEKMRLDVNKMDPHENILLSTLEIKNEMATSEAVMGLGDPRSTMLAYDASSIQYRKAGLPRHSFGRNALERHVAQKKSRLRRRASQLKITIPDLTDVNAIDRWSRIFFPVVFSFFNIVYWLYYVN

SMILES	Ki [1] [µM]	Ki [2] [µM]	Ki [4] [µM]	other results
O=c1c(-c2cc[nH]n2)n[nH]c2c(-c3ccccc3)cnn12	0.329	3	0.42	Ki [3]: 2.09 µM; Ki [5]: 0.408 µM
O=c1c(-n2ccnc2)c[nH]c2c(-c3cccs3)cnn12	–	–	–	inhibition [6]: 14.7%
O=c1c(-c2cc[nH]n2)c[nH]c2c(Cc3ccccc3)cnn12	0.854	–	–	–
Cc1ccc(-c2cnn3c(=O)c(-c4cc[nH]n4)n[nH]c23)cc1	–	–	–	inhibition [6]: 32%
O=c1c(-c2cc[nH]n2)c[nH]c2c(-c3ccc4ccccc4c3)cnn12	–	–	–	inhibition [6]: 20%
O=c1c(-c2cc[nH]n2)c[nH]c2c(-n3cccc3)cnn12	2.67	–	–	–
O=c1c(-n2ccnc2)c[nH]c2c(-c3ccccc3)cnn12	–	–	–	inhibition [6]: 2%
O=c1c(-c2cc[nH]n2)c[nH]c2c(-c3cccs3)cnn12	0.533	–	–	–
O=c1c(-n2cccn2)c[nH]c2c(-c3ccccc3)cnn12	–	–	–	inhibition [6]: 59.5%
O=c1c(-n2cccn2)c[nH]c2c(-c3cccs3)cnn12	–	–	–	inhibition [6]: 13.9%
COc1ccc(-c2cnn3c(=O)c(-c4cc[nH]n4)n[nH]c23)cc1	1.61	–	–	–
O=c1c(-c2cc[nH]n2)n[nH]c2c(-c3ccc4ccccc4c3)cnn12	2.3	–	–	–
O=c1c(-c2cc[nH]n2)c[nH]c2c(-c3cccc4ccccc34)cnn12	0.599	–	–	–

Second part, led by results:

Ki [1] [µM]	Ki [2] [µM]	Ki [4] [µM]	SMILES	other results
0.326	–	–	O=c1c(-c2cc[nH]n2)c[nH]c2c(-c3ccccc3)cnn12	–
0.0954	–	–	O=c1c(-c2cc[nH]n2)c[nH]c2c(-c3cccc(Cl)c3)cnn12	–
0.0105	0.012	0.0091	O=c1c(-c2cc[nH]n2)n[nH]c2c(-c3ccccn3)cnn12	inhibition [7]: 32%
0.077	–	0.15	O=c1c(-c2cc[nH]n2)n[nH]c2c(-c3cccc4ccccc34)cnn12	Ki [5]: 0.159 µM
0.237	0.0412	0.285	O=c1c(-c2cc[nH]n2)n[nH]c2c(-c3cccs3)cnn12	Ratio Ki [8]: 16; Ratio Ki [9]: 7; inhibition [10]: 28%; Ki [5]: 0.662 µM
0.0142	–	–	O=c1c(-c2cc[nH]n2)c[nH]c2c(-c3ccccn3)cnn12	–
0.0072	> 5	0.0065	O=c1c(-c2cc[nH]n2)n[nH]c2c(-c3cccc(C(F)(F)F)c3)cnn12	Ki [3]: 0.501 µM; Ki [5]: 0.144 µM
0.074	0.99	0.0656	O=c1c(-c2cc[nH]n2)n[nH]c2c(-c3cccc(Cl)c3)cnn12	inhibition [7]: 40%; Ki [3]: 0.66 µM
0.152	0.632	0.1	O=c1c(-c2cc[nH]n2)n[nH]c2c(-c3cccc(F)c3)cnn12	inhibition [7]: 23%; Ki [3]: 1.08 µM
0.0883	2.42	0.0773	O=c1c(-c2cc[nH]n2)n[nH]c2c(-c3ccc(F)cc3)cnn12	Ki [3]: 0.894 µM; Ki [5]: 1.11 µM
0.0736	5	0.051	O=c1c(-c2cc[nH]n2)n[nH]c2c(-c3cccnc3)cnn12	Ki [3]: 0.502 µM; Ki [5]: 1.24 µM
0.038	–	0.021	O=c1c(-c2cc[nH]n2)n[nH]c2c(-c3cccc(Br)c3)cnn12	inhibition [11]: 50%; Ki [3]: 0.57 µM; Ki [5]: 1.12 µM
0.0373	–	–	O=c1c(-c2cc[nH]n2)c[nH]c2c(-c3cccnc3)cnn12	–
